Measured values as given in ChEMBL document CHEMBL3885861, “Open TG-GATES”.

Species: Rattus norvegicus
Experiment: Open TG-GATES - Regimen: Single
Assay type: toxicity, organism-based, Sprague-Dawley
Parameters: regimen Single, gender Male, age 6 weeks
Details: in vivo, po, route gavage; for APTT / Bas / Eos / Fbg / Hb / Ht / Lym / MCH / MCHC / MCV / Mono / Neu / PT / Plat / RBC / Ret / WBC: tissue Blood; for KIDNEY_L / KIDNEY_R / KIDNEY_TOTAL: tissue Kidney; for LIVER: tissue Liver; for A/G / ALP / ALT / AST / BUN / CRE / Ca / Cl / DBIL / GLC / IP / K / LDH / Na / PL / RALB / TBIL / TC / TG / TP / gamma-GTP: tissue Plasma
[1] = 1000 mg/kg, 3 h, dose level Middle
[2] = 1000 mg/kg, 6 h, dose level Middle
[3] = 1000 mg/kg, 9 h, dose level Middle
[4] = 1000 mg/kg, 24 h, dose level Middle
[5] = 2000 mg/kg, 3 h, dose level High
[6] = 2000 mg/kg, 6 h, dose level High
[7] = 2000 mg/kg, 9 h, dose level High
[8] = 2000 mg/kg, 24 h, dose level High

CCN1CCCC1CNC(=O)c1cc(S(N)(=O)=O)ccc1OC (centres undefined) [SULPIRIDE]
TERMINAL_BW [1]: 201.4 g
APTT [1]: 17.3 s
Bas [1]: 0%
Eos [1]: 0.6%
Fbg [1]: 253.4 mg/dL
Hb [1]: 12.6 g/dL
Ht [1]: 39.6%
Lym [1]: 78.4%
MCH [1]: 20.8 pg
MCHC [1]: 31.8%
MCV [1]: 65.2 fL
Mono [1]: 3.4%
Neu [1]: 16.8%
PT [1]: 13.6 s
Plat [1]: 109.3 x10_4/uL
RBC [1]: 608 x10_4/ul
Ret [1]: 8.1%
WBC [1]: 83.5 x10_2/uL
KIDNEY_L [1]: 0.9 g
KIDNEY_R [1]: 0.9 g
KIDNEY_TOTAL [1]: 1.8 g
LIVER [1]: 9.2 g
A/G [1]: 0.9
ALP [1]: 1375.8 IU/L
ALT [1]: 36.6 IU/L
AST [1]: 74.2 IU/L
BUN [1]: 10.4 mg/dL
CRE [1]: 0.2 mg/dL
Ca [1]: 10.8 mg/dL
Cl [1]: 106.6 meq/L
DBIL [1]: 0.004 mg/dL
GLC [1]: 169.8 mg/dL
IP [1]: 8.2 mg/dL
K [1]: 4 meq/L
LDH [1]: 116.6 IU/L
Na [1]: 142.6 meq/L
PL [1]: 126.2 mg/dL
RALB [1]: 2.4 g/dL
TBIL [1]: 0.068 mg/dL
TC [1]: 63.4 mg/dL
TG [1]: 54.2 mg/dL
TP [1]: 5.1 g/dL
gamma-GTP [1]: 1.8 IU/L
TERMINAL_BW [2]: 201.9 g
APTT [2]: 18.2 s
Bas [2]: 0.2%
Eos [2]: 0.8%
Fbg [2]: 279.2 mg/dL
Hb [2]: 13.1 g/dL
Ht [2]: 40.9%
Lym [2]: 79.6%
MCH [2]: 20.9 pg
MCHC [2]: 32.1%
MCV [2]: 65.2 fL
Mono [2]: 3%
Neu [2]: 15.8%
PT [2]: 13.5 s
Plat [2]: 123.7 x10_4/uL
RBC [2]: 628.2 x10_4/ul
Ret [2]: 8.4%
WBC [2]: 61.1 x10_2/uL
KIDNEY_L [2]: 0.9 g
KIDNEY_R [2]: 0.9 g
KIDNEY_TOTAL [2]: 1.7 g
LIVER [2]: 8.4 g
A/G [2]: 0.9
ALP [2]: 1420 IU/L
ALT [2]: 35.2 IU/L
AST [2]: 69.8 IU/L
BUN [2]: 8 mg/dL
CRE [2]: 0.2 mg/dL
Ca [2]: 10.7 mg/dL
Cl [2]: 107.4 meq/L
DBIL [2]: 0.006 mg/dL
GLC [2]: 175 mg/dL
IP [2]: 8.9 mg/dL
K [2]: 4.1 meq/L
LDH [2]: 101.8 IU/L
Na [2]: 142 meq/L
PL [2]: 137.8 mg/dL
RALB [2]: 2.4 g/dL
TBIL [2]: 0.07 mg/dL
TC [2]: 76.2 mg/dL
TG [2]: 45.6 mg/dL
TP [2]: 5.1 g/dL
gamma-GTP [2]: 1.4 IU/L
TERMINAL_BW [3]: 201.7 g
APTT [3]: 17.2 s
Bas [3]: 0%
Eos [3]: 1%
Fbg [3]: 308 mg/dL
Hb [3]: 13.7 g/dL
Ht [3]: 43%
Lym [3]: 71.2%
MCH [3]: 20.7 pg
MCHC [3]: 31.8%
MCV [3]: 65 fL
Mono [3]: 3.6%
Neu [3]: 23.8%
PT [3]: 13.3 s
Plat [3]: 131.4 x10_4/uL
RBC [3]: 661 x10_4/ul
Ret [3]: 7.7%
WBC [3]: 64.3 x10_2/uL
KIDNEY_L [3]: 0.9 g
KIDNEY_R [3]: 0.9 g
KIDNEY_TOTAL [3]: 1.8 g
LIVER [3]: 8.3 g
A/G [3]: 0.9
ALP [3]: 1435.8 IU/L
ALT [3]: 28.6 IU/L
AST [3]: 63.2 IU/L
BUN [3]: 7.6 mg/dL
CRE [3]: 0.2 mg/dL
Ca [3]: 10.7 mg/dL
Cl [3]: 107.6 meq/L
DBIL [3]: 0.002 mg/dL
GLC [3]: 178.2 mg/dL
IP [3]: 9.7 mg/dL
K [3]: 4 meq/L
LDH [3]: 106.2 IU/L
Na [3]: 141.6 meq/L
PL [3]: 151 mg/dL
RALB [3]: 2.5 g/dL
TBIL [3]: 0.066 mg/dL
TC [3]: 83.8 mg/dL
TG [3]: 65.2 mg/dL
TP [3]: 5.3 g/dL
gamma-GTP [3]: 1.2 IU/L
TERMINAL_BW [4]: 214.6 g
APTT [4]: 17.3 s
Bas [4]: 0%
Eos [4]: 1%
Fbg [4]: 290.8 mg/dL
Hb [4]: 13.9 g/dL
Ht [4]: 42.1%
Lym [4]: 77.8%
MCH [4]: 20.7 pg
MCHC [4]: 32.9%
MCV [4]: 62.9 fL
Mono [4]: 2.4%
Neu [4]: 18.4%
PT [4]: 12.8 s
Plat [4]: 123 x10_4/uL
RBC [4]: 670.2 x10_4/ul
Ret [4]: 6.7%
WBC [4]: 66.8 x10_2/uL
KIDNEY_L [4]: 0.9 g
KIDNEY_R [4]: 0.9 g
KIDNEY_TOTAL [4]: 1.9 g
LIVER [4]: 9.4 g
A/G [4]: 0.9
ALP [4]: 1599.4 IU/L
ALT [4]: 46 IU/L
AST [4]: 67.6 IU/L
BUN [4]: 17.2 mg/dL
CRE [4]: 0.2 mg/dL
Ca [4]: 11.2 mg/dL
Cl [4]: 105.2 meq/L
DBIL [4]: 0.018 mg/dL
GLC [4]: 178.8 mg/dL
IP [4]: 8.6 mg/dL
K [4]: 4.4 meq/L
LDH [4]: 145.4 IU/L
Na [4]: 142 meq/L
PL [4]: 157.6 mg/dL
RALB [4]: 2.6 g/dL
TBIL [4]: 0.056 mg/dL
TC [4]: 83 mg/dL
TG [4]: 112.4 mg/dL
TP [4]: 5.7 g/dL
gamma-GTP [4]: 1 IU/L
TERMINAL_BW [5]: 201.8 g
APTT [5]: 18.6 s
Bas [5]: 0%
Eos [5]: 0.6%
Fbg [5]: 244.2 mg/dL
Hb [5]: 12.7 g/dL
Ht [5]: 39.6%
Lym [5]: 82%
MCH [5]: 21 pg
MCHC [5]: 32.2%
MCV [5]: 65.4 fL
Mono [5]: 3.2%
Neu [5]: 13%
PT [5]: 13.9 s
Plat [5]: 117.9 x10_4/uL
RBC [5]: 606.4 x10_4/ul
Ret [5]: 7.7%
WBC [5]: 82.3 x10_2/uL
KIDNEY_L [5]: 0.9 g
KIDNEY_R [5]: 0.9 g
KIDNEY_TOTAL [5]: 1.8 g
LIVER [5]: 9 g
A/G [5]: 0.9
ALP [5]: 1446.6 IU/L
ALT [5]: 42 IU/L
AST [5]: 74.6 IU/L
BUN [5]: 9.4 mg/dL
CRE [5]: 0.2 mg/dL
Ca [5]: 10.6 mg/dL
Cl [5]: 105.4 meq/L
DBIL [5]: 0.004 mg/dL
GLC [5]: 174 mg/dL
IP [5]: 8.8 mg/dL
K [5]: 3.9 meq/L
LDH [5]: 90.2 IU/L
Na [5]: 143.4 meq/L
PL [5]: 119.6 mg/dL
RALB [5]: 2.3 g/dL
TBIL [5]: 0.068 mg/dL
TC [5]: 57.6 mg/dL
TG [5]: 55 mg/dL
TP [5]: 4.9 g/dL
gamma-GTP [5]: 1.2 IU/L
TERMINAL_BW [6]: 199.5 g
APTT [6]: 17 s
Bas [6]: 0%
Eos [6]: 0.8%
Fbg [6]: 273 mg/dL
Hb [6]: 13 g/dL
Ht [6]: 40.9%
Lym [6]: 76.6%
MCH [6]: 20.9 pg
MCHC [6]: 31.9%
MCV [6]: 65.6 fL
Mono [6]: 2.6%
Neu [6]: 19%
PT [6]: 13.4 s
Plat [6]: 121.6 x10_4/uL
RBC [6]: 623.8 x10_4/ul
Ret [6]: 7.6%
WBC [6]: 63.1 x10_2/uL
KIDNEY_L [6]: 0.9 g
KIDNEY_R [6]: 0.9 g
KIDNEY_TOTAL [6]: 1.7 g
LIVER [6]: 8.1 g
A/G [6]: 0.9
ALP [6]: 1306.2 IU/L
ALT [6]: 39.6 IU/L
AST [6]: 74.2 IU/L
BUN [6]: 7.2 mg/dL
CRE [6]: 0.1 mg/dL
Ca [6]: 10.5 mg/dL
Cl [6]: 106.4 meq/L
DBIL [6]: 0 mg/dL
GLC [6]: 163.6 mg/dL
IP [6]: 9.1 mg/dL
K [6]: 4 meq/L
LDH [6]: 92 IU/L
Na [6]: 142.4 meq/L
PL [6]: 133.2 mg/dL
RALB [6]: 2.4 g/dL
TBIL [6]: 0.07 mg/dL
TC [6]: 72.2 mg/dL
TG [6]: 35.2 mg/dL
TP [6]: 5.2 g/dL
gamma-GTP [6]: 1 IU/L
TERMINAL_BW [7]: 199.2 g
APTT [7]: 19.7 s
Bas [7]: 0%
Eos [7]: 1%
Fbg [7]: 296.6 mg/dL
Hb [7]: 13.3 g/dL
Ht [7]: 41.7%
Lym [7]: 79.6%
MCH [7]: 20.1 pg
MCHC [7]: 32%
MCV [7]: 62.9 fL
Mono [7]: 2.2%
Neu [7]: 16.6%
PT [7]: 13.2 s
Plat [7]: 117.3 x10_4/uL
RBC [7]: 663.8 x10_4/ul
Ret [7]: 7.5%
WBC [7]: 63.8 x10_2/uL
KIDNEY_L [7]: 0.9 g
KIDNEY_R [7]: 0.9 g
KIDNEY_TOTAL [7]: 1.8 g
LIVER [7]: 7.5 g
A/G [7]: 0.9
ALP [7]: 1349.6 IU/L
ALT [7]: 30.8 IU/L
AST [7]: 67.4 IU/L
BUN [7]: 7.4 mg/dL
CRE [7]: 0.1 mg/dL
Ca [7]: 10.5 mg/dL
Cl [7]: 108.4 meq/L
DBIL [7]: 0.008 mg/dL
GLC [7]: 165.6 mg/dL
IP [7]: 10.1 mg/dL
K [7]: 4.3 meq/L
LDH [7]: 88.2 IU/L
Na [7]: 142 meq/L
PL [7]: 133.8 mg/dL
RALB [7]: 2.5 g/dL
TBIL [7]: 0.076 mg/dL
TC [7]: 73 mg/dL
TG [7]: 29 mg/dL
TP [7]: 5.3 g/dL
gamma-GTP [7]: 1.6 IU/L
TERMINAL_BW [8]: 209.1 g
APTT [8]: 16.6 s
Bas [8]: 0.2%
Eos [8]: 0.8%
Fbg [8]: 301.4 mg/dL
Hb [8]: 13.8 g/dL
Ht [8]: 42.8%
Lym [8]: 79.2%
MCH [8]: 20.4 pg
MCHC [8]: 32.3%
MCV [8]: 63.2 fL
Mono [8]: 3.6%
Neu [8]: 15.4%
PT [8]: 12.7 s
Plat [8]: 120.6 x10_4/uL
RBC [8]: 678.6 x10_4/ul
Ret [8]: 7%
WBC [8]: 97.3 x10_2/uL
KIDNEY_L [8]: 0.9 g
KIDNEY_R [8]: 0.9 g
KIDNEY_TOTAL [8]: 1.9 g
LIVER [8]: 9 g
A/G [8]: 0.9
ALP [8]: 1595.2 IU/L
ALT [8]: 40.6 IU/L
AST [8]: 64.8 IU/L
BUN [8]: 17.4 mg/dL
CRE [8]: 0.2 mg/dL
Ca [8]: 11.3 mg/dL
Cl [8]: 103.8 meq/L
DBIL [8]: 0.012 mg/dL
GLC [8]: 179.8 mg/dL
IP [8]: 9.3 mg/dL
K [8]: 4.8 meq/L
LDH [8]: 101 IU/L
Na [8]: 141.4 meq/L
PL [8]: 149.8 mg/dL
RALB [8]: 2.7 g/dL
TBIL [8]: 0.064 mg/dL
TC [8]: 86.2 mg/dL
TG [8]: 77 mg/dL
TP [8]: 5.7 g/dL
gamma-GTP [8]: 1 IU/L
